Measurements reported in patent publication EP2687509A2, “Dicarboxyimides derivatives for use in the treatment of cancer” (Warszawski Uniwersytet Medyczny, priority 2012, dated 2014).

How the values were obtained:
[1] = system: K562 cells; assay: MTT cytotoxicity assay, K562 cells; type: cell-based, human; conditions: Homo sapiens, K562, 48 h, 48 h incubation, * = compound precipitated at 1 mM from cell cultures
Description: (§1) A series of dicarboximides derivatives (table 1) was tested for cytotoxic properties against four cell lines. The tests were conducted by means of MTT assay where yellow tetrazole salt was processed by the dehydrogenases in mitochondria of live cells into violet formazan. The following cell lines were used:
- K562 cells (human chronic myelogenous leukaemia) and
(§2) 1. HeLa, K562, HL60, HUVEC cells in an amount of 7 thousand cells / well (in 200 µL medium) were seeded in 96-well plates. Cells were incubated overnight in an incubator (37°C, 5% CO2)
(§3) 2. Test compounds were dissolved in DMSO and added in an amount of 2µL to the surface of the cells to give the following final concentrations in the cell culture (1 mM, 10 µm, 100 nM, 1 nM). As a control, cells exposed to 1% DMSO were used.
(§4) 3. Cytotoxicity of the test compounds was evaluated by MTT test. After 48-hour incubation of HeLa, K562, HL60 or HUVEC cells with the test compounds, MTT (5mg/mL) was added in an amount of 25µL/well. MTT, a yellow tetrazolium salt was reduced to purple formazan by mitochondrial dehydrogenases of living cells. The amount of formazan could be determined spectrophotometrically and was proportional to the number of live cells. Cells were incubated with MTT for 2 hours in an incubator (37°C, 5% CO2). Next, lysis buffer containing SDS and DMF was added (95µL/well) to each well and incubated overnight at 37°C, 5% CO2.
(§5) 4. The plates were analyzed by reading the absorbance at a wavelength of 570 nm and 650 nm using the plate-reader Fluostar Omega. The measured absorbance at 570 nm is proportional to the number of living cells. IC50 values (concentration of compound causing 50% cell mortality) were read from the charts by interpolation to 50% cell survival.

[2] = system: HeLa cells; assay: MTT cytotoxicity assay, HeLa cells; type: cell-based; conditions: Homo sapiens, 48 h incubation, * = compound precipitated at 1 mM from cell cultures
Description: as §1
- HeLa cells (uterine cervix cancer)
as §2, §3, §4, §5

[3] = system: HUVEC cells; assay: MTT cytotoxicity assay, HUVEC cells; type: cell-based; conditions: Homo sapiens, 48 h incubation, * = compound precipitated at 1 mM from cell cultures
Description: as §1
- HUVEC cells (normal human endothelial cells).
as §2, §3, §4, §5

Structure (SMILES) | IC50 [1] [µM] | IC50 [2] [µM] | IC50 [3] [µM]
CN(C)CCN1C(=O)C2C(C1=O)C1(c3ccccc3)CC2(c2ccccc2)C(c2ccccc2)=C1c1ccccc1 (centres unmarked) [a1] | 1 | 1 | > 1000
CN(C)CCCN1C(=O)C2C(C1=O)C1(c3ccccc3)CC2(c2ccccc2)C(c2ccccc2)=C1c1ccccc1 (centres unmarked) [a2] | 1 | 1 | 4
CCC12C(=O)C(CC)(C(c3ccccc3)=C1c1ccccc1)C1C(=O)N(CC(O)CN(C)C)C(=O)C12 (centres unmarked) [a8] | > 1000 | > 1000 | –
CC(C)NCC(O)CN1C(=O)C2C(C1=O)C1(c3ccccc3)CC2(c2ccccc2)C(c2ccccc2)=C1c1ccccc1 (centres unmarked) [a9] | 1 | 1 | 1
CN(C)CC(O)CN1C(=O)C2C(C1=O)C1(c3ccccc3)CC2(c2ccccc2)C(c2ccccc2)=C1c1ccccc1 (centres unmarked) [a10] | 1 | 1 | 1
CC(C)NCC(O)CN1C(=O)C2C(C1=O)C1(C)C(=O)C2(C)C(c2ccccc2)=C1c1ccccc1 (centres unmarked) [a11] | 90 | 90 | 70
CN(C)CC(O)CN1C(=O)C2C(C1=O)C1(C)C(=O)C2(C)C(c2ccccc2)=C1c1ccccc1 (centres unmarked) [a12] | 90 | 100 | 100
COC12C=CC(CC1)C1C(=O)N(CCN(C)C)C(=O)C12 (centres unmarked) [b1] | > 1000 | > 1000 | –
CCN(CC)CCN1C(=O)C2C3C=CC(OC)(CC3)C2C1=O (centres unmarked) [b2] | > 1000 | > 1000 | –
COC12C=CC(CC1)C1C(=O)N(CCN3CCOCC3)C(=O)C12 (centres unmarked) [b3] | > 1000 | > 1000 | –
COC12C=CC(CC1)C1C(=O)N(CCN3CCCCC3)C(=O)C12 (centres unmarked) [b4] | > 1000 | > 1000 | –
COC12C=CC(CC1)C1C(=O)N(CCCN(C)C)C(=O)C12 (centres unmarked) [b5] | > 1000 | > 1000 | –
CC(=O)OC12C=CC(OC(C)=O)(CC1)C1C(=O)N(CCN(C)C)C(=O)C12 (centres unmarked) [b6] | > 1000 | > 1000 | –
CCN(CC)CCN1C(=O)C2C(C1=O)C1(OC(C)=O)C=CC2(OC(C)=O)CC1 (centres unmarked) [b7] | > 1000 | > 1000 | –
CC(=O)OC12C=CC(OC(C)=O)(CC1)C1C(=O)N(CCN3CCOCC3)C(=O)C12 (centres unmarked) [b8] | > 1000 | > 1000 | –
CC(=O)OC12C=CC(OC(C)=O)(CC1)C1C(=O)N(CCN3CCCCC3)C(=O)C12 (centres unmarked) [b9] | > 1000 | > 1000 | –
CC(=O)OC12C=CC(OC(C)=O)(CC1)C1C(=O)N(CCCN(C)C)C(=O)C12 (centres unmarked) [b10] | > 1000 | > 1000 | –
CCN(CC)CCN1C(=O)C2C3C(C)=CC(C)(CC3(C)C)C2C1=O (centres unmarked) [b12] | > 1000 | 1000 | –
CC1=CC2(C)CC(C)(C)C1C1C(=O)N(CCN3CCCCC3)C(=O)C12 (centres unmarked) [b14] | 100 | 100 | –
CC(C)COC12CCC(C(=O)C1)C1C(=O)N(CCN(C)C)C(=O)C12 (centres unmarked) [c1] | > 1000 | > 1000 | –
CCN(CC)CCN1C(=O)C2C3CCC(OCC(C)C)(CC3=O)C2C1=O (centres unmarked) [c2] | > 1000 | > 1000 | –
CC(C)COC12CCC(C(=O)C1)C1C(=O)N(CCN3CCOCC3)C(=O)C12 (centres unmarked) [c3] | > 1000 | > 1000 | –
CC(C)COC12CCC(C(=O)C1)C1C(=O)N(CCN3CCCCC3)C(=O)C12 (centres unmarked) [c4] | > 1000 | > 1000 | –
CC(C)COC12CCC(C(=O)C1)C1C(=O)N(CCCN(C)C)C(=O)C12 (centres unmarked) [c5] | > 1000 | > 1000 | –
CCOC(=O)C1CC2C(=O)CC1(C)C1C(=O)N(CCN(CC)CC)C(=O)C21 (centres unmarked) [c7] | > 1000 | > 1000 | –
CCOC(=O)C1CC2C(=O)CC1(C)C1C(=O)N(CCN3CCOCC3)C(=O)C21 (centres unmarked) [c8] | > 1000 | > 1000 | –
CCOC(=O)C1CC2C(=O)CC1(C)C1C(=O)N(CCN3CCCCC3)C(=O)C21 (centres unmarked) [c9] | > 1000 | > 1000 | –
CCOC(=O)C1CC2C(=O)CC1(C)C1C(=O)N(CCCN(C)C)C(=O)C21 (centres unmarked) [c10] | > 1000 | > 1000 | –
